Assay results: patent US20200147037A1, “NEW TREATMENT OF BRAIN CANCER” (priority 2017, published 2020)

Key:
[1] = system: A549 highly metastatic human lung tumor; details: Paclitaxel 25 μM
[2] = system: glioblastoma; details: intracranial pump; WANG et al. 2018; cited from earlier work

Structure (SMILES): CC(=O)O[C@H]1C(=O)[C@@]2(C)[C@H]([C@H](OC(=O)c3ccccc3)[C@]3(O)C[C@H](OC(=O)[C@H](O)[C@@H](NC(=O)c4ccccc4)c4ccccc4)C(C)=C1C3(C)C)[C@]1(OC(C)=O)CO[C@@H]1C[C@@H]2O [Paclitaxel, paclitaxel]
- % of embryo death [1]: 24%, N = 21
- Tumor weight [1]: 20.558 ± 1.902 mg
- reduction of brain metastases amount compared to controls [1]: 61%

Structure (SMILES): CC(C)C[C@H](NC(=O)[C@H](Cc1ccccc1)NC(=O)c1cnccn1)B(O)O [Bortezomib]
- increase in survival [2]: 40%
